Consider one compound from patent EP1543832A2, “Use of trans-4[4-(3-chloro-4-methoxy-benzylamino) benzothieno[2,3-d]pyrimidin-2-yl]-cyclohexanecarboxylic acid in the treatment of extrapyramidal movement disorders” (MERCK PATENT GmbH, priority 2003, dated 2005).

The subject of assay [1] is idiopathic Parkinson's disease. As to the kind of experiment: Double-blind add-on study in idiopathic Parkinson's disease (UPDRS). Format: in vivo, patients. The note with it: add-on 2.5 to 10 mg b.i.d. versus placebo. From the text:
A typical study to investigate the efficacy of the compounds according to the invention in the treatment of idiopathic Parkinson's disease is described in the following. 180 patients of either sex with idiopathic Parkinson's disease participate in a double-blind study. The main inclusion criteria are Hoehn & Yahr stage ≥ 2.0 (Hoehn H.M. et al, Neurology 1967; 17: 427-442), aged 50-80 years, symptom duration of at least 5 years. Trans-4-[4-(3-chloro-4-methoxybenzylamino)-benzothieno-[2,3-d]pyrimidin-2-yl]cyclohexanecarboxylic acid or placebo is administered as "add on" to the conventional Parkinson treatment, which is maintained unchanged during the whole study. The dose of blinded medication is titrated over a period of 4 weeks in a range from 2.5 to 10 mg b.i.d. Then the medication is kept constant for 1 week. Before the start of titration, at the end of the treatment period and 2 weeks after the end of the tiration period an assessment is performed in each patients using the unified Parkinson's disease rating scale (UPDRS part I to V according to S. Fahn et al., in: Recent developments in Parkinson's disease, vol. 2, MacMillan health information 1987, 153-163). […]

The test system of assay [2] is MSA patients. The assay can be described thus: Placebo-controlled cross-over add-on study in MSA patients (UPDRS). The format is in vivo. Conditions: add-on 2.5 to 20 mg b.i.d. versus placebo. The source says: A typical study to investigate the efficacy of the compounds according to the invention in MSA patients encompasses 30 patients of either sex with a symptom duration of at least 5 years and a significant reduction of central dopamine receptors in positron emission tomography (PET) scan. The study design is similar to that described above for Parkinson's disease. Trans-4-[4-(3-chloro-4-methoxybenzylamino)-benzothieno-[2,3-d]pyrimidin-2-yl]cyclohexanecarboxylic acid sodium or ethanolamine salt or placebo is titrated as "add on" to the conventional treatment (dose range 2.5 to 20 mg b.i.d.). Before the start of titration and at the end of the treatment period a complete UPDRS assessment is performed in each patient (primary outcome measure). After a 2-week wash-out period the two study arms are crossed over and the protocol is repeated.

Assay [3] relates to tardive dyskinesia. The assay can be described thus: Double-blind cross-over add-on study in tardive dyskinesia (AIMS). Conditions: add-on to antipsychotic treatment, 2.5 to 20 mg b.i.d., compared with placebo period. The format is in vivo, schizophrenic (DSM-III-R) inpatients. The source says:
Tardive dyskinesia is a common adverse effect of long-term treatment with neuroleptics. A typical study to investigate the efficacy of the compounds according to the invention in tardive dyskinesia is described in the following. 32 schizophrenic (DSM-III-R) inpatients aged 25 - 60 years on long-term stable antipsychotic treatment (duration of at least 5 years) entered the study. Trans-4-[4-(3-chloro-4-methoxybenzylamino)-benzothieno-[2,3-d]pyrimidin-2-yl]cyclohexanecarboxylic acid sodium or ethanolamine salt or placebo is administered as "add on" to the antipsychotic treatment, which is kept constant during the whole study. The dose of blinded medication is titrated over a period of 3 weeks in a range from 2.5 to 20 mg b.i.d. Then the medication is maintained under double-blind conditions for 2 weeks. After a 2-week wash-out period, the test drugs are crossed over. Assessments of tardive dyskinesia by means of the Abnormal Involuntary Movement Scale (AIMS, see obove) and of Parkinsonian extrapyramidal side effects (UPDRS, see above) are made pretreatment and posttreatment.

The test system of assay [4] is advanced idiopathic Parkinson's disease complicated by "peak-dose" dyskinesia. As to the kind of experiment: Double-blind cross-over study, peak-dose dyskinesia after l-dopa challenge in advanced idiopathic Parkinson's disease. The format is in vivo, patients. Conditions: first hour in the "on" state after l-dopa challenge; add-on 2.5 to 10 mg b.i.d. versus placebo. The source says:
A typical study to investigate the efficacy of the compounds according to the invention for adverse effects in Parkinson's disease is described in the following. 40 patients of either sex with advanced idiopathic Parkinson's disease complicated by "peak-dose" dyskinesia participate in a double-blind, cross-over study. The main inclusion criteria are Hoehn & Yahr stage ≥ 2.5 (lit.: Hoehn H.M. et al, Neurology 1967; 17: 427-442), aged 40-75 years, symptom duration of at least 5 years, and a I-dopa treatment duration of at least 3 years. trans-4-[4-(3-chloro-4-methoxybenzylamino)-benzothieno-[2,3-d]pyrimidin-2-yl]cyclohexanecarboxylic acid sodium or ethanolamine salt or placebo is administered as "add on" to the conventional Parkinson treatment; which is maintained unchanged during the whole study. The dose of blinded medication is titrated over a period of 3 weeks in a range from 2.5 to 10 mg b.i.d. Then the medication is kept constant for 1 week. Before the start of titration and at the end of the treatment period a I-dopa challenge is performed according to P. Damier et al. (Movement Disord,1999, 14 (Suppl. 1), 54-59) using video recording. The main outcome measure of the protocol is the mean score for dyskinesia during the first hour in the "on" state after I-dopa challenge. […]

Counter-ions that a name gives are not always drawn.

As for `COc1ccc(CNc2nc([C@H]3CC[C@H](C(=O)O)CC3)nc3sc4ccccc4c23)cc1Cl` [trans-4-[4-(3-chloro-4-methoxybenzylamino)-benzothieno-[2,3-d]pyrimidin-2-yl]cyclohexanecarboxylic acid sodium or ethanolamine salt], the UPDRS scores result in assay [1] is “significant clinical improvement”. Moreover, in assay [2], the UPDRS entry is “significant clinical improvement”. Also, in assay [3], the AIMS scores result is recorded as “significantly lower than during placebo period”. Moreover, the mean dyskinesia scores result in assay [4] is “significant clinical improvement”.
